Experimental findings from US20260151383A1, “HETEROCYCLIC COMPOUNDS AND USES THEREOF” (KayoThera Inc., priority 2022, published 2026) are described below.

Type in all cases: biochemical
Common to all, as to settings: recombinant enzyme, 20° C., activity level classes

One assay concerns the target T1, hALDH1a3 (Homo sapiens, UniProt P47895).
T1 construct: made in house; host or cells: E. coli BL21-DE3
T1 sequence (P47895 1-512): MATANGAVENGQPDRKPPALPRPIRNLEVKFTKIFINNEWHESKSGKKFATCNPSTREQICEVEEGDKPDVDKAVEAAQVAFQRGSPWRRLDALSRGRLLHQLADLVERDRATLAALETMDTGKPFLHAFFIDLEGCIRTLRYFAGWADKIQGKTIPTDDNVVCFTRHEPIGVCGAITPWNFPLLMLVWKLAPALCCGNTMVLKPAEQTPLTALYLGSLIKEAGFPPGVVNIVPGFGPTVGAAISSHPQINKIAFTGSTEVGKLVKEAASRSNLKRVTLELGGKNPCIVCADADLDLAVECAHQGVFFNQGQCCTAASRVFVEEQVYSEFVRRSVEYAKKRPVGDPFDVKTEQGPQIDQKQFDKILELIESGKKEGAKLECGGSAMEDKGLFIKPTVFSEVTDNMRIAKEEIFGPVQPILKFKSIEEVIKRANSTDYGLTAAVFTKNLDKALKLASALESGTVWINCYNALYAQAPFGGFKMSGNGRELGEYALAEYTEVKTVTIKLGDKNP
Nature of the assay: Aldh1a3 enzyme inhibition assay (resorufin fluorescence), human enzyme.

A further assay has as its target T2, hALDH1a2 (Homo sapiens, UniProt O94788).
T2 construct: made in house; host or cells: E. coli BL21-DE3
T2 sequence (O94788 1-518): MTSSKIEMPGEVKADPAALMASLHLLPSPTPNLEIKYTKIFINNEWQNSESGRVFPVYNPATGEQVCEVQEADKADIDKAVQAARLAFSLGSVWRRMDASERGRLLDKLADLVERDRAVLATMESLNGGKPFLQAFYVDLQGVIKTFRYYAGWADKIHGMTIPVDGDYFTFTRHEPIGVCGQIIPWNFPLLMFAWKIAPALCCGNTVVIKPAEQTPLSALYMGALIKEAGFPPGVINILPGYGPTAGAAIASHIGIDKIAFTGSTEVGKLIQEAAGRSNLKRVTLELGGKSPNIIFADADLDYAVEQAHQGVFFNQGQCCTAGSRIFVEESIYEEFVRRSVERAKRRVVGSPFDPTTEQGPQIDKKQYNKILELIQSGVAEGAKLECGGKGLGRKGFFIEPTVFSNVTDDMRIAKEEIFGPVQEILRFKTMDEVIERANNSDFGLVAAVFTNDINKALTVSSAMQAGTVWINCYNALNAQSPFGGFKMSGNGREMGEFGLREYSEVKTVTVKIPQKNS
Nature of the assay: Aldh1a2 enzyme inhibition assay (resorufin fluorescence), human enzyme. From the text:
(§1) Recombinant enzyme and inhibitor added immediately before assay. Reaction rate measured by resorufln fluorescence.

In another assay the target is T3, mALDH1a2 (Mus musculus, UniProt Q62148).
T3 construct: made in house; host or cells: E. coli BL21-DE3
T3 sequence (Q62148 1-518): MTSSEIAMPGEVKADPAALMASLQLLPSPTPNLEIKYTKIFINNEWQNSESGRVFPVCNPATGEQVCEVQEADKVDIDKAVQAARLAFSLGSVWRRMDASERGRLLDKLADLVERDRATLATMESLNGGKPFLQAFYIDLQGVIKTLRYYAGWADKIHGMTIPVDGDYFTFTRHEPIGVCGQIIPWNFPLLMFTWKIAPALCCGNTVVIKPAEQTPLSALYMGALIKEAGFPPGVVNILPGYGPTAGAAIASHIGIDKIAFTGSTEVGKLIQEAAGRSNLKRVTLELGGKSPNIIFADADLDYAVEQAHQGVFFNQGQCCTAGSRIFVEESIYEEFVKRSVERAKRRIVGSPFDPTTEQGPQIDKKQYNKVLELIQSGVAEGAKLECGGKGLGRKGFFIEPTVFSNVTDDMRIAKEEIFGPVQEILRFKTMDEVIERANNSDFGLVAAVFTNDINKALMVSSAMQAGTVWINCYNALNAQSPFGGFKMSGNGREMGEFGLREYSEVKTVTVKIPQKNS
Description: Aldh1a2 enzyme inhibition assay (resorufin fluorescence), mouse enzyme.
Source text: as §1

A further assay addresses T4, mALDH1a3 (Mus musculus, UniProt Q9JHW9).
T4 construct: made in house; host or cells: E. coli BL21-DE3
T4 sequence (Q9JHW9 1-512): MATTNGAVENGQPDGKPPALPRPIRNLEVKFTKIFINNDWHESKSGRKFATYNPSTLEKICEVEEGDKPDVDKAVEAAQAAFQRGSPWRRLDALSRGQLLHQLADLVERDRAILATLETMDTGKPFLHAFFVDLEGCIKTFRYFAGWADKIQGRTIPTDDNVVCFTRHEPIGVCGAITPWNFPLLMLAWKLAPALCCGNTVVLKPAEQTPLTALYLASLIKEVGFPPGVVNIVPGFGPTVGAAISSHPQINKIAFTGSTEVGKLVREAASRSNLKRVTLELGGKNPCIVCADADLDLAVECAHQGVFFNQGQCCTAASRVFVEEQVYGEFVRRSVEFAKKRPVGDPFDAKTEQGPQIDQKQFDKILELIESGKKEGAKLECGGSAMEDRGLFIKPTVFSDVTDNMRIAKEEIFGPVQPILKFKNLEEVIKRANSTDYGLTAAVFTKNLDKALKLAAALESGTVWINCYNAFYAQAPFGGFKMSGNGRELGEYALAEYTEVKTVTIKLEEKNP
Description: Aldh1a3 enzyme inhibition assay (resorufin fluorescence), mouse enzyme. From the text: Recombinant enzyme and inhibitor added immediately before assay. Reaction rate measured by resorufin fluorescence.

In the case of `CCc1sncc1C(=O)Nc1cc(C)c2c(c1)C1CC1C(=O)N2` (centres unmarked) [Compound 52], the IC50 on hALDH1a3 is 100 to 250 nM; on hALDH1a2, under 100 nM; at mALDH1a2, 100 to 250 nM; at mALDH1a3 it was under 100 nM.

Regarding `Cc1cc(NC(=O)c2ocnc2CC(F)(F)F)cc2c1NC(=O)CC2` [Compound 56], the IC50 on hALDH1a3 was in the range of 250 to 1000 nM; at hALDH1a2, 1000 to 5000 nM; at mALDH1a2 it was 1000 to 5000 nM; on mALDH1a3, 100 to 250 nM.

As to `CCc1ncoc1C(=O)Nc1cc(C)c2c(c1)CCC(=O)N2` [Compound 57], the IC50 on hALDH1a3 was 250 to 1000 nM; at hALDH1a2, 1000 to 5000 nM; on mALDH1a2 it was 1000 to 5000 nM; on mALDH1a3 it was 100 to 250 nM.

On to `CCc1nc[nH]c1C(=O)Nc1cc(C)c2c(c1)CCC(=O)N2` [Compound 59], for which the IC50 at hALDH1a3 fell in the range of 1000 to 5000 nM; at hALDH1a2, 1000 to 5000 nM; at mALDH1a2, 1000 to 5000 nM; at mALDH1a3, 250 to 1000 nM.

Take `CCc1ncoc1C(=O)Nc1cc(C)c2c(c1)C1CC1C(=O)N2` (centres unmarked) [Compound 60]: the IC50 on hALDH1a3 lay within 250 to 1000 nM; on hALDH1a2, 250 to 1000 nM; at mALDH1a2, 250 to 1000 nM; at mALDH1a3, 100 to 250 nM.

With `O=C(Nc1cc(F)c2c(c1)C1CC1C(=O)N2)c1ocnc1CC(F)(F)F` (centres unmarked) [Compound 61], the IC50 on hALDH1a3 was 100 to 250 nM; at hALDH1a2, 250 to 1000 nM; on mALDH1a2, 250 to 1000 nM; on mALDH1a3 it was 250 to 1000 nM.

In the case of `CCc1ncoc1C(=O)Nc1cc(F)c2c(c1)C1CC1C(=O)N2` (centres unmarked) [Compound 62], the IC50 at hALDH1a3 was 1000 to 5000 nM; on hALDH1a2 it was over 5000 nM; at mALDH1a2 it was over 5000 nM; on mALDH1a3, 1000 to 5000 nM.

Consider `Cc1cc(NC(=O)c2scnc2CC2CC2)cc2c1NC(=O)CC2` [Compound 63], for which the IC50 was under 100 nM at hALDH1a3, 100 to 250 nM on hALDH1a2, 250 to 1000 nM at mALDH1a2 and under 100 nM at mALDH1a3.

As to `Cc1cc(NC(=O)c2scnc2CC(C)(C)C)cc2c1NC(=O)CC2` [Compound 64], the half-inhibitory concentration (IC50) at hALDH1a3 was 250 to 1000 nM; on hALDH1a2, 250 to 1000 nM; on mALDH1a2, 1000 to 5000 nM; on mALDH1a3, 1000 to 5000 nM.

As to `Cc1cc(NC(=O)c2scnc2CC(C)C)cc2c1NC(=O)CC2` [Compound 65], the IC50 on hALDH1a3 lay in the range of 100 to 250 nM; at hALDH1a2 it was 1000 to 5000 nM; at mALDH1a2, 1000 to 5000 nM; at mALDH1a3, 250 to 1000 nM.

`CCCc1ncsc1C(=O)Nc1cc(C)c2c(c1)CCC(=O)N2` [Compound 66]: the IC50 lay within 100 to 250 nM at hALDH1a3, 250 to 1000 nM on hALDH1a2, 250 to 1000 nM on mALDH1a2 and 100 to 250 nM on mALDH1a3.

As to `Cc1cc(NC(=O)c2scnc2C)cc2c1NC(=O)CC2` [Compound 67], the IC50 at hALDH1a3 was 250 to 1000 nM; at hALDH1a2 it was 1000 to 5000 nM; at mALDH1a2, 1000 to 5000 nM; at mALDH1a3, 250 to 1000 nM.

Turning to `Cc1c(F)c(NC(=O)c2ncsc2CC(F)(F)F)cc2c1NC(=O)CC2` [Compound 72], the IC50 on hALDH1a3 was 100 to 250 nM; on hALDH1a2 it was 100 to 250 nM; at mALDH1a2, 250 to 1000 nM; on mALDH1a3, 100 to 250 nM.

Turning to `Cc1c(Cl)c(NC(=O)c2ncsc2CC(F)(F)F)cc2c1NC(=O)CC2` [Compound 73], the IC50 at hALDH1a3 is under 100 nM; at hALDH1a2 it was 100 to 250 nM; on mALDH1a2, under 100 nM; at mALDH1a3, under 100 nM.

On to `O=C1CCc2cc(NC(=O)c3ncsc3CC(F)(F)F)cc(Cl)c2N1` [Compound 75], for which the IC50 is under 100 nM on hALDH1a3, 100 to 250 nM at hALDH1a2, 250 to 1000 nM at mALDH1a2 and 100 to 250 nM on mALDH1a3.

Take `Cc1cc(NC(=O)c2scnc2C2CC2)cc2c1NC(=O)CC2` [Compound 77]: the IC50 at hALDH1a3 was in the range of 250 to 1000 nM; on hALDH1a2, 250 to 1000 nM; on mALDH1a2, 250 to 1000 nM; on mALDH1a3, 100 to 250 nM.

As for `Cc1cc(NC(=O)c2ocnc2CC(F)(F)F)cc2c1NC(=O)C1CC21` (centres unmarked) [Compound 82], the IC50 on hALDH1a3, at hALDH1a2, at mALDH1a2 and on mALDH1a3 was 100 to 250 nM throughout.
